Experimental data from ChEMBL document CHEMBL5725558, “BTK Inhibitors” (2017).

Target: Tyrosine-protein kinase BTK (Homo sapiens, UniProt Q06187)
Test: Phosphorylation reactions were allowed to proceed for 120 minutes. […] After 60 minutes incubation with detection reagents, reaction plates were read on a PerkinElmer EnVision plate reader using standard TR-FRET protocol. […] IC50 values were determined by 4 parameter robust fit of TR-FRET ratio values vs. (Log10) compound concentrations.

Sequence of Tyrosine-protein kinase BTK (Q06187 whole entry): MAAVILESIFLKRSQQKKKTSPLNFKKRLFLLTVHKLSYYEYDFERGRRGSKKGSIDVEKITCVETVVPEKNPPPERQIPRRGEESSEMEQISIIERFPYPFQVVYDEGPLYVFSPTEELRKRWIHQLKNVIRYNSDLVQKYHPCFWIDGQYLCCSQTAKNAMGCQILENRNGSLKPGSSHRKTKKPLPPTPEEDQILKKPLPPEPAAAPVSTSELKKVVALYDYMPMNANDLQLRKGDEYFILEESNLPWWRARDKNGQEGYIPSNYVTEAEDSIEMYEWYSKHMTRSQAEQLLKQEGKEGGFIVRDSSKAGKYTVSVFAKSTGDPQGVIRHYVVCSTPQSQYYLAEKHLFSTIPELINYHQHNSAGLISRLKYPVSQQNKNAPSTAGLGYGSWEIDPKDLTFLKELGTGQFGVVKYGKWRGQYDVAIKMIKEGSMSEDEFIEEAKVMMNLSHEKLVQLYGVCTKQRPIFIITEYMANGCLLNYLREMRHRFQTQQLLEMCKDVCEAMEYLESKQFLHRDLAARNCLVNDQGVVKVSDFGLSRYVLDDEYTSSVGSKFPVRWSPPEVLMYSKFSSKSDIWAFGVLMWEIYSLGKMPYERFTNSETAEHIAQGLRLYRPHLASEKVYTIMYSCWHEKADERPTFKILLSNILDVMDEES

- IC50: < 0.01 µM
Compound: CC(=O)N1CCC[C@@H](c2nc(-c3ccc(C(=O)Nc4cc(C)ccn4)cc3)c3c(N)nccn23)C1
